Source: patent US20030181335A1, “Novel 3- (4-cyanophenyl) uracils” (priority 1995, published 2003)

Columns and labels:
Assay in all cases: Greenhouse herbicidal activity, post-emergence
Assay type in all cases: in vivo
Settings in all cases: application rate 0.0156 or 0.0078 kg of a.i./ha
Galium aparine = tested on: Galium aparine
Description: (§1) The culture containers used were plastic flower pots containing loamy sand with approximately 3.0% of humus as the substrate. The seeds of the test plants were sown separately for each species.
(§2) For the post-emergence treatment, the test plants were first grown to a plant height of 3 to 15 cm, depending on the growth form, and only then treated with the active ingredients which were suspended or emulsified in water. The test plants were either sown directly and grown in the same containers, or grown separately as seedlings and transplanted to the test containers a few days prior to treatment. The application rate for the post-emergence treatment was 0.0156 or 0.0078 kg of a.i. (active ingredient) per ha.
(§3) The plants were kept at from 10-25° C. or 20-35° C., depending on the species. The test period extended to 2-4 weeks. During this time, the plants were tended and their response to individual treatments was evaluated.
(§4) Evaluation was carried out using a scale from 0 to 100. 100 means no emergence of the plants, or complete destruction of at least the aerial parts, and 0 means no damage or normal course of growth.
(§5) The plants used for the greenhouse experiments were the following species: […]

Solanum nigrum = tested on: Solanum nigrum
Description: as §1, §2, §3, §4, §5

Ipomoea subspecies = tested on: Ipomoea subspecies
Description: as §1, §2, §3, §4, §5

Abutilon theophrasti = tested on: Abutilon theophrasti
Description: as §1, §2, §3, §4, §5

COc1cc(-n2c(=O)cc(C(F)(F)F)n(N)c2=O)ccc1C#N [Compound No. I.02, 1-Amino-3-[4-cyano-3-methoxyphenyl]-6-trifluoromethyl-1,2,3,4-tetrahydropyrimidine-2,4-dione]
very effective: herbicidal action against Galium aparine (catchweed bedstraw) (Galium aparine) | herbicidal action against Solanum nigrum (black nightshade) (Solanum nigrum) | herbicidal action against Ipomoea subspecies (morningglory) (Ipomoea subspecies) | herbicidal action against Abutilon theophrasti (velvet leaf) (Abutilon theophrasti)
